Experimental data taken from ChEMBL document CHEMBL1201862, “PubChem BioAssay data set” (2004).
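In this assay, cells in 96-well plates receive the compound at five concentrations for 48 hours. Endpoints are linearly interpolated between the surrounding concentrations. GI50 is the concentration that inhibits growth by half.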 Active and inactive are the calls of the source. No stated cut-off is given here; in the data, active = GI50 up to about 1.1 µM and inactive = higher.

How the values were obtained:
Assay in all cases: NCI-60 cell line screen, 48 h
[1] = tested on: ACHN
[2] = tested on: HCT-15
[3] = tested on: HL-60
[4] = tested on: K562
[5] = tested on: M14
[6] = tested on: MOLT-4
[7] = tested on: NCI-H23
[8] = tested on: OVCAR-3
[9] = tested on: OVCAR-4
[10] = tested on: RPMI-8226
[11] = tested on: SK-MEL-28
[12] = tested on: SK-MEL-5
[13] = tested on: SN12C
[14] = tested on: SR
[15] = tested on: SW-620
[16] = tested on: UACC-257
[17] = tested on: A498
[18] = tested on: HCC 2998
[19] = tested on: SF-539

SMILES | GI50 [1] | GI50 [2] | GI50 [3] | GI50 [4] | GI50 [5] | GI50 [6] | GI50 [7] | GI50 [8] | GI50 [9] | GI50 [10] | GI50 [11] | GI50 [12] | GI50 [13] | GI50 [14] | GI50 [15] | GI50 [16] | GI50 [17] | GI50 [18] | GI50 [19]
Cc1ccc(S(=O)(=O)N/N=C2/C3C(CC2(C)C)C2(C)CCCC3(C)C2O)cc1 (centres undefined) | > 10 µM (inactive) | 23.2 µM | 26.1 µM (inactive) | 23.9 µM (inactive) | 22.9 µM (inactive) | 12.9 µM (inactive) | 22.8 µM (inactive) | 34.4 µM (inactive) | 19.1 µM (inactive) | 35.6 µM (inactive) | 18.9 µM (inactive) | 15.5 µM (inactive) | 19.9 µM (inactive) | 20.7 µM (inactive) | > 10 µM (inactive) | 16.8 µM (inactive) | – | – | –
O=P(O)(O)CC1OC(CO)C(O)C1O (centres undefined) | > 100 µM (inactive) | > 100 µM | > 100 µM (inactive) | > 100 µM (inactive) | > 100 µM (inactive) | > 100 µM (inactive) | > 100 µM (inactive) | > 100 µM (inactive) | > 100 µM (inactive) | – | > 100 µM (inactive) | > 100 µM (inactive) | > 100 µM (inactive) | – | > 100 µM (inactive) | > 100 µM (inactive) | > 100 µM (inactive) | > 100 µM (inactive) | > 100 µM (inactive)
CC(=N/NC(=S)N1CCCCC1)/C(=N\NC(=S)N1CCCCC1)c1ccccc1 | 1.6 µM (inactive) | 2.1 µM | – | 4.74 µM (inactive) | 1.99 µM (inactive) | 6.19 µM (inactive) | 2.2 µM (inactive) | 1.65 µM (inactive) | 1.85 µM (inactive) | 3.36 µM (inactive) | 2.09 µM (inactive) | 1.96 µM (inactive) | 1.82 µM (inactive) | – | 2.15 µM (inactive) | 1.95 µM (inactive) | 1.3 µM (inactive) | 2.3 µM (inactive) | 2.67 µM (inactive)
O=c1c2c(oc3ccccc13)-c1ccccc1OC2 | 35.7 µM (inactive) | > 100 µM | – | > 100 µM (inactive) | > 100 µM (inactive) | > 100 µM (inactive) | 59.7 µM (inactive) | > 100 µM (inactive) | – | > 100 µM (inactive) | – | 44.8 µM (inactive) | 53.3 µM (inactive) | – | 67.8 µM (inactive) | > 100 µM (inactive) | – | > 100 µM (inactive) | 25.2 µM (inactive)
O=[N+]([O-])C(/C(Cl)=C(/Cl)N1CCOCC1)=C1\NCCO1 | > 100 µM (inactive) | > 100 µM | – | – | > 100 µM (inactive) | > 100 µM (inactive) | > 100 µM (inactive) | > 100 µM (inactive) | > 100 µM (inactive) | > 100 µM (inactive) | > 100 µM (inactive) | – | > 100 µM (inactive) | – | > 100 µM (inactive) | > 100 µM (inactive) | > 100 µM (inactive) | > 100 µM (inactive) | > 100 µM (inactive)
COc1ccc(/C=C2\NC(=S)N(/C=C3\C(=O)Oc4ccccc4C3=O)C2=O)cc1OC | 91 µM (inactive) | 93.5 µM | 22.4 µM (inactive) | > 100 µM (inactive) | > 100 µM (inactive) | > 100 µM (inactive) | > 100 µM (inactive) | 87.3 µM (inactive) | > 100 µM (inactive) | > 100 µM (inactive) | – | > 100 µM (inactive) | > 100 µM (inactive) | – | > 100 µM (inactive) | > 100 µM (inactive) | 54 µM (inactive) | > 100 µM (inactive) | > 100 µM (inactive)
CC1CC2(OC2C)C(=O)OC2CCN(C)C/C=C(/COC(=O)C1(C)O)C2=O (centres undefined) | > 100 µM (inactive) | > 100 µM | > 100 µM (inactive) | > 100 µM (inactive) | > 100 µM (inactive) | > 10 µM (inactive) | > 100 µM (inactive) | > 100 µM (inactive) | > 100 µM (inactive) | > 100 µM (inactive) | > 100 µM (inactive) | > 100 µM (inactive) | > 100 µM (inactive) | – | > 100 µM (inactive) | > 100 µM (inactive) | > 100 µM (inactive) | > 100 µM (inactive) | > 100 µM (inactive)
